Legend:
Oryctolagus cuniculus = experiment: Reduction of blood glucose in normoglycemic rabbit at 50 mg/kg, po after 4 hrs; format: functional; design: scale not given: the % may be the effect or the level left
[1] = Non-competitive inhibition of alpha-glucosidase (unknown origin); design: species or system Homo sapiens
[2] = molecular target: Aldo-keto reductase family 1 member B1 (Homo sapiens) (UniProt P15121); experiment: Inhibition of aldose reductase (unknown origin) at 10 ug/ml
[3] = molecular target: T1, Tyrosine-protein phosphatase non-receptor type 1 (Homo sapiens, UniProt P18031); experiment: Competitive inhibition of PTP1B (unknown origin) using p-nitrophenyl phosphate as substrate
T1 sequence (P18031 whole entry): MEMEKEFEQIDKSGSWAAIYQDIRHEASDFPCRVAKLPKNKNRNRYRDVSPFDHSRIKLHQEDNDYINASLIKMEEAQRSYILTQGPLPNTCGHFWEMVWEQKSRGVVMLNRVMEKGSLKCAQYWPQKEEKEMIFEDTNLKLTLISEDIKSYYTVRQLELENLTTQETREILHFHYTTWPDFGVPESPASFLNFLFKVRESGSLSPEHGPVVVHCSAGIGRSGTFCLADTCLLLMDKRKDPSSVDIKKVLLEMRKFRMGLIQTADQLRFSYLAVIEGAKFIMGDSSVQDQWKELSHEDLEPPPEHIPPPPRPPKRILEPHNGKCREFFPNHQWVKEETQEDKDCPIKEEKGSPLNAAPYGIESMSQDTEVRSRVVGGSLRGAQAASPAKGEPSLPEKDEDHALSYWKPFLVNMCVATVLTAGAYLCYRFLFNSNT

[4] = molecular target: T2, Solute carrier family 2, facilitated glucose transporter member 4 (Rattus norvegicus) (UniProt P19357); experiment: Induction of GLUT4 translocation in rat L6 cells assessed as increase in 2-deoxyglucose uptake relative to control; format: cell-based
T2 sequence (whole entry): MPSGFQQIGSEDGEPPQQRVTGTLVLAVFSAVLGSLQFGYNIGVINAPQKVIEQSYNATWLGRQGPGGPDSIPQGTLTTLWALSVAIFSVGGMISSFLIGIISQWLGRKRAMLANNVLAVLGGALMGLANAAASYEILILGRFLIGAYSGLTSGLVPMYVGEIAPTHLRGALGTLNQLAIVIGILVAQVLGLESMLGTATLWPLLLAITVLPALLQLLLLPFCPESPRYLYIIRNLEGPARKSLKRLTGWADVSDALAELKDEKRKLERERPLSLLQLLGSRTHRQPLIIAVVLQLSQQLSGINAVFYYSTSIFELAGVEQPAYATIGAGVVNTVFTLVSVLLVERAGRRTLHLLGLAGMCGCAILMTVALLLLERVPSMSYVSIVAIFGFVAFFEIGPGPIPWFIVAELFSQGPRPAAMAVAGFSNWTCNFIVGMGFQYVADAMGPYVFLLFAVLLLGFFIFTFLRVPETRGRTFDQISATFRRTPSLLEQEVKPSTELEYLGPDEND

[5] = molecular target: T1, Tyrosine-protein phosphatase non-receptor type 1; experiment: Inhibition of PTP1B (unknown origin)
[6] = molecular target: Aldo-keto reductase family 1 member B1 (Homo sapiens) (UniProt P15121); experiment: Inhibition of ALR2 (unknown origin); details: concentration not given here
Homo sapiens = organism: Homo sapiens; experiment: Inhibition of ALR1 (unknown origin); details: concentration not given here

Structure (SMILES): Cc1ccc(S(=O)(=O)CC(=O)Cc2ccccc2C(=O)/C=C/c2ccc(Cl)cc2Cl)cc1
- Activity (Oryctolagus cuniculus): 38.73%

Structure (SMILES): CC(C)=CCc1cc(C(=O)/C=C/c2ccc(O)cc2)c(O)cc1O [BROUSSOCHALCONE B]
- IC50 [1]: 5.3 µM

Structure (SMILES): C=C(C)C(CC=C(C)C)Cc1c(O)cc(OC)c(C(=O)/C(O)=C/c2ccc(O)cc2O)c1O (stereo unspecified)
- inhibition [2]: 53.7%

Structure (SMILES): CC1(C)CCc2cc(C(=O)/C=C/c3ccc(O)cc3)c(O)cc2O1
- IC50 [1]: 5.3 µM

Structure (SMILES): C=C(C)C(CCC(C)(C)O)Cc1c(O)cc(OC)c(C(=O)/C(O)=C/c2ccc(O)cc2O)c1O (stereo unspecified)
- inhibition [2]: 53.7%

Structure (SMILES): CC(/C=C1\SC(=S)N(CC(=O)O)C1=O)=C\c1ccccc1
- inhibition [2]: 55.6%

Structure (SMILES): O=C(/C=C/c1ccco1)c1ccc(O)cc1O
- IC50 [3]: 2.49 µM

Structure (SMILES): COc1cc(O)c(CC=C(C)C)c(O)c1C(=O)/C(O)=C/c1ccc(O)cc1
- inhibition [2]: 53.7%

Structure (SMILES): CC(C)=CCC/C(C)=C/Cc1c(O)ccc(C(=O)/C=C/c2ccc(O)cc2)c1O
- Ratio [4]: 1.9

Structure (SMILES): O=C(/C=C/c1ccco1)c1cccc(Cl)c1
- IC50 [3]: 2.9 µM

Structure (SMILES): CC1(C)CCc2cc(C(=O)/C=C/c3ccc(O)c(O)c3)c(O)cc2O1
- IC50 [1]: 5.3 µM

Structure (SMILES): CC(C)=CCc1cc(C(=O)/C=C/c2ccc(O)c(O)c2)c(O)cc1O [BROUSSOCHALCONE A]
- IC50 [1]: 5.3 µM
- IC50 [5]: 21.5 µM

Structure (SMILES): CSc1ccc(/C=C/C(=O)c2ccc(O)cc2O)cc1
- inhibition [6]: 35%
- inhibition (Homo sapiens): 35%

Structure (SMILES): COc1ccc(/C=C/C(=O)c2ccc(OC)cc2O)cc1
- inhibition [6]: 35%
- inhibition (Homo sapiens): 35%

Structure (SMILES): COc1ccc(C(=O)/C=C/c2ccc(O)cc2)c(O)c1CC=C(C)C
- Ratio [4]: 1.9

Structure (SMILES): O=C(/C=C/c1ccc(Cl)cc1)c1ccc(O)cc1O
- inhibition [6]: 35%
- inhibition (Homo sapiens): 35%

Structure (SMILES): COc1cc(O)c(CC=C(C)C)c(O)c1C(=O)/C=C/c1ccc(O)cc1 [XANTHOHUMOL]
- IC50 [1]: 8.8 µM
